Experimental data published in patent US9315475B2 (MERCK SHARP & DOHME CORP., priority 2011, dated 2016).

Molecular target: T1, wildtype HIV-1 protease (Human immunodeficiency virus type 1 group M subtype B, UniProt P04585)
T1 construct: the wildtype HIV-1 protease (which was expressed in Escherichia coli); made in house; host or cells: Escherichia coli
Assay: Assay for inhibition of microbial expressed HIV protease (Pepcleav)
Format: biochemical
Settings: wild type HIV-1 protease expressed in E. coli, peptide substrate, pH 5.5; mean of at least two independent experiments; read-out: Pepcleav
Method: Assay for Inhibition of Microbial Expressed HIV Protease (“Pepcleav”)
Studies of the inhibition of the wildtype HIV-1 protease (which was expressed in Escherichia coli) were carried out with a peptide substrate [Val-Ser-Gln-Asn-(βnaphthyl)Ala-Pro-Ile-Val (SEQ ID NO:1)]. The inhibitor is first preincubated with the HIV-1 protease (wild type) enzyme in assay buffer (50 mM sodium acetate, pH 5.5, 100 mM NaCl, and 0.1% BSA) for 30 minutes at room temperature. Substrate is added to 400 micromolar in a total volume of 20 microliters containing 20 picomolar HIV-1 protease (final) and the reaction is incubated for 1 hour at 30° C. The reaction is quenched with the addition of formic acid and indinavir to 0.012% and 150 nM final concentrations, respectively. The product formation is determined after separation of product and substrate on a Zorbax Eclipse XDB-C 18 column connected to an API 4000 mass spectrometer (Applied Biosystems) with multiple reaction monitoring (transitions were 644.5/428.9 and 615.4/422.2 (M1/M3) for product and indinavir respectively). The extent of inhibition of the reaction is determined from the peak area of the products.

SMILES	IC50
N[C@H](C(=O)Nc1c(F)cccc1OC[C@@H]1CN[C@H](COC(=O)NCC(F)(F)F)CO1)C(c1ccc(F)cc1)c1ccc(F)cc1 [Example 200, 4-fluoro-β-(4-fluorophenyl)-N-(2-fluoro-6-{[(2S,5S)-5-({[(2,2,2-trifluoroethyl)carbamoyl]oxy}methyl)morpholin-2-yl]methoxy}phenyl)-L-phenylalaninamide]	31 nM
COC(=O)N[C@H](C(=O)Nc1ccccc1CC[C@@H]1CN[C@H](COC(=O)N(C)C)CO1)C(c1ccccc1)c1ccccc1 [Example 26, methyl N-[(1S)-1-benzhydryl-2-[[2-[2-[(2R,5S)-5-(dimethylcarbamoyloxymethyl)morpholin-2-yl]ethyl]phenyl]amino]-2-oxo-ethyl]carbamate]	210 nM
COC(=O)N[C@H](C(=O)Nc1ccccc1CC[C@@H]1CN[C@H](C(=O)N2CCCC2)CO1)C(c1ccccc1)c1ccccc1 [Example 5, Nα-(methoxycarbonyl)-β-phenyl-N-(2-{2-[(2R,5S)-5-(pyrrolidin-1-ylcarbonyl)morpholin-2-yl]ethyl}phenyl)-L-phenylalaninamide]	80 nM
N[C@@H](C(=O)Nc1cncc(F)c1CC[C@@H]1CN[C@H](CO)CO1)[C@@H](c1ccccc1)c1ccnc2ccccc12 [Example 225, (βS)-N-(5-fluoro-4-{2-[(2R,5R)-5-(hydroxymethyl)morpholin-2-yl]ethyl}pyridin-3-yl)-β-quinolin-4-yl-D-phenylalaninamide]	2700 nM
COC(=O)N[C@H](C(=O)Nc1ccccc1CC[C@@H]1CN[C@H](CNC(=O)Cc2ccccc2)CO1)C(c1ccccc1)c1ccccc1 [Example 53, Nα-(methoxycarbonyl)-β-phenyl-N-(2-{2-[(2R,5R)-5-{[(phenylacetyl)amino]methyl}morpholin-2-yl]ethyl}phenyl)-L-phenylalaninamide]	12 nM
C[C@H](NC(=O)OC[C@@H]1CO[C@H](COc2c(F)cccc2NC(=O)[C@@H](N)C(c2ccc(F)cc2)c2ccc(F)cc2)CN1)c1ccc(F)cc1 [Example 210, 4-fluoro-N-[3-fluoro-2-({(2S,5S)-5-[({[(1S)-1-(4-fluorophenyl)ethyl]carbamoyl}oxy)methyl]morpholin-2-yl}methoxy)phenyl]-β-(4-fluorophenyl)-L-phenylalaninamide]	13 nM
COC(=O)N[C@H](C(=O)Nc1ccccc1CC[C@@H]1CN[C@H](C(=O)Nc2ccccc2)CO1)C(c1ccccc1)c1ccccc1 [Example 7, Nα-(methoxycarbonyl)-β-phenyl-N-(2-{2-[(2R,5S)-5-(phenylcarbamoyl)morpholin-2-yl]ethyl}phenyl)-L-phenylalaninamide]	0.8 nM
COC(=O)N[C@H](C(=O)Nc1ccccc1CC[C@@H]1CN[C@H](COC(=O)NCCN(C)C)CO1)C(c1ccccc1)c1ccccc1 [Example 28, methyl N-[(1S)-1-benzhydryl-2-[[2-[2-[(2R,5S)-5-(2-dimethylaminoethylcarbamoyloxymethyl)morpholin-2-yl]ethyl]phenyl]amino]-2-oxo-ethyl]carbamate]	250 nM
N[C@@H](Cc1cccc2ccccc12)C(=O)Nc1cncc(F)c1CC[C@@H]1CN[C@H](COC(=O)NCC(F)(F)F)CO1 [Example 190, {(3S,6R)-6-[2-(3-{[(2S)-2-amino-3-naphthalen-1-ylpropanoyl]amino}-5-fluoropyridin-4-yl)ethyl]morpholin-3-yl}methyl (2,2,2-trifluoroethyl)carbamate (non-preferred name)]	510 nM
COC(=O)N[C@H](C(=O)Nc1ccccc1CC[C@@H]1CN[C@H](C(=O)O)CO1)C(c1ccccc1)c1ccccc1 [Example 1, (3S,6R)-6-[2-(2-{[N-(methoxycarbonyl)-β-phenyl-L-phenylalanyl]amino}phenyl)ethyl]morpholine-3-carboxylic acid]	65 nM
